Source: publication PMC10210183 (ACS Omega, 2023)

Biological target: eqBChE (Equus caballus, UniProt P81908)
Assay: biochemical
Conditions: read-out: BChE % Inhibition ± SD @ 1 μM, eqBChE, 1 μM

eqBChE, sequence (P81908 whole entry): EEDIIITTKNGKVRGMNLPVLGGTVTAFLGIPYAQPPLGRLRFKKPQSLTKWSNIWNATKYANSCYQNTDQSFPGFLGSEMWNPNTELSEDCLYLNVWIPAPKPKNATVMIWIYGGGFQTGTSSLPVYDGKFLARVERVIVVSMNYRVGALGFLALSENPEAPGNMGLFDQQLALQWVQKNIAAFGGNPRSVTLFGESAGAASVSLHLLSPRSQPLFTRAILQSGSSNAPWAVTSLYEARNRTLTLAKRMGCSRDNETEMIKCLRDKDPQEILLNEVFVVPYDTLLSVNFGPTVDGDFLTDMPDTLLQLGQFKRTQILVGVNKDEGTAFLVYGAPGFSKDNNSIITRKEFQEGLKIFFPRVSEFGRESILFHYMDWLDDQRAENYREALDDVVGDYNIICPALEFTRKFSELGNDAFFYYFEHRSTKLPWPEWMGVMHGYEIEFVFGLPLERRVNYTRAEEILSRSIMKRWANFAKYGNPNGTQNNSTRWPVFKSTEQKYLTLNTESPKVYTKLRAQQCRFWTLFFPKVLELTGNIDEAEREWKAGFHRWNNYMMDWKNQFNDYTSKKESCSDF

SMILES	inhibition at 1 µM [%]
COc1ccc2cc(/C=C/c3cc[n+](Cc4ccccc4)cc3)ccc2c1 [Compound 7aq, (E)-1-Benzyl-4-(2-(6-methoxynaphthalen-2-yl)vinyl)pyridin-1-ium bromide]	60
COc1cc(/C=C/c2cc[n+](Cc3ccccc3)cc2)cc(OC)c1 [Compound 7a, (E)-1-Benzyl-4-(3,5-dimethoxystyryl)pyridin-1-ium bromide]	20
